Source: ChEMBL document CHEMBL5233286, “Lasiodiplodiapyrones A and B, Pyrone-Preussomerin Adducts with Highly Strained Polycyclic Ring Systems from Lasiodiplodia pseudotheobromae” (J Nat Prod, 2023)
Where a SMILES comes first, the peptide text is derived from it. The star is where a group is joined. Cbz = O=C(OCc1ccccc1)*

tested on: RAW264.7; experiment: Anti-inflammatory activity against mouse RAW264.7 cells assessed as inhibition of LPS-induced NO production pretreated with compound for 2 hrs followed by LPS stimulation for 12 hrs by Griess reagent based analysis; type: functional, cell-based

IC50 [µM] | Structure (SMILES)
4.8 | Cc1cc2c(c(=O)o1)[C@@H]1[C@H](O2)[C@H](O)c2c(O)ccc3c2[C@@]12Oc1cccc4c1[C@](CC[C@@H]4O)(O3)O2
8.5 | Cc1cc2c(c(=O)o1)[C@@H]1[C@H](O2)[C@H](O)c2c(O)ccc3c2[C@@]12Oc1cccc4c1[C@](C=C[C@@H]4O)(O3)O2

More lines, now with the values behind:

Structure (SMILES) | IC50 [µM]
CC(C)C[C@@H](C=O)NC(=O)[C@H](CC(C)C)NC(=O)[C@H](CC(C)C)NC(=O)OCc1ccccc1 [MG-132] (Cbz-Leu-Leu-Leu-aldehyde) | 2.6
Oc1ccc2c3c1[C@@H](O)[C@H]1O[C@H]1[C@]31Oc3cccc4c3[C@](CC[C@@H]4O)(O2)O1 | 5.9
O=C1C[C@@H](O)[C@]23Oc4cccc5c4[C@](CC[C@@H]5O)(Oc4ccc(O)c1c42)O3 | 12.8
